Experiment: recombinant UMI read abundance after kanamycin selection (control-corrected) (log10(CPM+1)); higher = more efficient recombination; extreme values may be limits of the assay; sequences stand for … in AGTGCAGAGAAAATCGGCCAGTTTTCTCTGCCTGCAGTCCGCATGCCGTGGGACCCCTTGGGTTCTAACCTGTTGCCTAGATTTATGCAGCGGACTGCCTTTCTCCCAAAGTGATAAACCGG…AGGTTGGTTTCACT; site = the 11-nt donor
Method: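 Pooled E. coli donor-specificity screen for the IS621 bridge recombinase. Each library member carries a reprogrammed 11-nt donor and a full-length LE bridge RNA expressed in cis from the natural promoter, with a paired donor-binding loop (8-nt LDG + 4-nt RDG) and a target-binding loop fixed to T5. It is co-electroporated with a T5 target plasmid; recombinase is induced with 0.07 mM IPTG and recombinants are selected on kanamycin. UMIs are counted as CPM, averaged over two biological replicates and corrected by the unselected control. Molecule = full bridge RNA written as DNA, built from the T5 scaffold: LDG = donor specificity nt 1-8, RDG = reverse complement of nt 8-11.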
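Further: IS621 bridge recombinase in Escherichia coli cells against a fixed T5 target plasmid.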

| Sequence | recombinant UMI read abundance (log10) |
| --- | --- |
| ACTGGAGCATGGACCGGTTTTCCCGGTAATCCGTATTTGCT (site ACTGGAGCTAG) | 1.86 |
| ACTGGATCATGGACCGGTTTTCCCGGTAATCCGTATTTGAG (site ACTGGATCTCT) | 2.41 |
| ACTGGATCATGGACCGGTTTTCCCGGTAATCCGTATTTGCA (site ACAGTATCTTG) | 0.973 |
| ACTGGATCATGGACCGGTTTTCCCGGTAATCCGTATTTGCA (site ACTGGATCTTG) | 1.64 |
| ACTGGGACATGGACCGGTTTTCCCGGTAATCCGTATTTGAG (site ACTGGGACTCT) | 1.39 |
| ACTGGTACATGGACCGGTTTTCCCGGTAATCCGTATTTGAA (site ACTGGTACTTT) | 1.1 |
| ACTGTATCATGGACCGGTTTTCCCGGTAATCCGTATTTGAA (site ACAGTATCTTG) | 0 |
| ACTGTATCATGGACCGGTTTTCCCGGTAATCCGTATTTGAA (site ACTGTATCTTT) | 1.99 |
| ACTGTATCATGGACCGGTTTTCCCGGTAATCCGTATTTGCA (site ACAGTATCTTG) | 1.82 |
| ACTGTATCATGGACCGGTTTTCCCGGTAATCCGTATTTGCA (site ACCGTATCTTG) | 1.91 |
| ACTGTATCATGGACCGGTTTTCCCGGTAATCCGTATTTGCA (site ACGGTATCTTG) | 1.96 |
| ACTGTATCATGGACCGGTTTTCCCGGTAATCCGTATTTGCA (site ACTGTATCTTG) | 2.57 |
| ACTTAGACATGGACCGGTTTTCCCGGTAATCCGTATTTGGT (site ACTTAGACTAC) | 1.15 |
| ACTTGATCATGGACCGGTTTTCCCGGTAATCCGTATTTGCG (site ACTTGATCTCG) | 1.57 |
| ACTTTAACATGGACCGGTTTTCCCGGTAATCCGTATTTGGT (site ACTTTAACTAC) | 0.85 |
| AGAAAAACATGGACCGGTTTTCCCGGTAATCCGTATTTGCA (site AGAAAAACTTG) | 2.23 |
| AGAAAAACATGGACCGGTTTTCCCGGTAATCCGTATTTGCA (site AGGAAGACTTG) | 0 |
| AGAAAGGCATGGACCGGTTTTCCCGGTAATCCGTATTTGCC (site AGAAAGGCTAG) | 0 |
| AGAAAGGCATGGACCGGTTTTCCCGGTAATCCGTATTTGCC (site AGAAAGGCTCG) | 0.784 |

| Sequence | recombinant UMI read abundance (log10) |
| --- | --- |
| AGAAAGGCATGGACCGGTTTTCCCGGTAATCCGTATTTGCC (site AGAAAGGCTGG) | 1.78 |
| AGAAAGGCATGGACCGGTTTTCCCGGTAATCCGTATTTGCC (site AGAAAGGCTTG) | 1.79 |
| AGAAAGGCATGGACCGGTTTTCCCGGTAATCCGTATTTGGT (site AGAAAGGCTAA) | 1.65 |
| AGAAAGGCATGGACCGGTTTTCCCGGTAATCCGTATTTGGT (site AGAAAGGCTAC) | 0.881 |
| AGAAAGGCATGGACCGGTTTTCCCGGTAATCCGTATTTGGT (site AGAAAGGCTAG) | 0.34 |
| AGAAAGGCATGGACCGGTTTTCCCGGTAATCCGTATTTGGT (site AGAAAGGCTAT) | 0.986 |
| AGAAAGGCATGGACCGGTTTTCCCGGTAATCCGTATTTGTT (site AGAAAGGCTAA) | 1.99 |
| AGAAAGGCATGGACCGGTTTTCCCGGTAATCCGTATTTGTT (site AGAAAGGCTAC) | 0 |
| AGAAAGGCATGGACCGGTTTTCCCGGTAATCCGTATTTGTT (site AGAAAGGCTAG) | 1.47 |
| AGAAAGGCATGGACCGGTTTTCCCGGTAATCCGTATTTGTT (site AGAAAGGCTAT) | 0.97 |
| AGAAAGTCATGGACCGGTTTTCCCGGTAATCCGTATTTGCA (site AGAAAGTCTTG) | 2.65 |
| AGAAAGTCATGGACCGGTTTTCCCGGTAATCCGTATTTGCA (site AGGAAGACTTG) | 0 |
| AGAAATCCATGGACCGGTTTTCCCGGTAATCCGTATTTGTT (site AGAAATCCTAA) | 0.589 |
| AGAAATCCATGGACCGGTTTTCCCGGTAATCCGTATTTGTT (site CGGAATCCTAA) | 0.00278 |
| AGAAATGCATGGACCGGTTTTCCCGGTAATCCGTATTTGAG (site AGAAATGCTCT) | 2.88 |
| AGAAATGCATGGACCGGTTTTCCCGGTAATCCGTATTTGCC (site AGAAATGCTGG) | 1.67 |
| AGAATGCCATGGACCGGTTTTCCCGGTAATCCGTATTTGAC (site AGAATGCCTGT) | 0 |
| AGACACCCATGGACCGGTTTTCCCGGTAATCCGTATTTGCA (site AGACACCCTTG) | 1.15 |
| AGACGAGCATGGACCGGTTTTCCCGGTAATCCGTATTTGCG (site AGACGAGCTCG) | 2.67 |

| Sequence | recombinant UMI read abundance (log10) |
| --- | --- |
| AGACTTGCATGGACCGGTTTTCCCGGTAATCCGTATTTGTA (site AGACTTGCTTA) | 0.887 |
| AGAGCGACATGGACCGGTTTTCCCGGTAATCCGTATTTGTG (site AGAGCGACTCA) | 1.49 |
| AGAGGGTCATGGACCGGTTTTCCCGGTAATCCGTATTTGGT (site AGAGGGTCTAC) | 2.54 |
| AGAGGTCCATGGACCGGTTTTCCCGGTAATCCGTATTTGTG (site AGAGGTCCTCA) | 0.00302 |
| AGAGTACCATGGACCGGTTTTCCCGGTAATCCGTATTTGCA (site ACAGTATCTTG) | 1.61 |
| AGAGTACCATGGACCGGTTTTCCCGGTAATCCGTATTTGCA (site AGAGTACCTTG) | 0 |
| AGAGTTACATGGACCGGTTTTCCCGGTAATCCGTATTTGGC (site AGAGTTACTGC) | 2.43 |
| AGATATACATGGACCGGTTTTCCCGGTAATCCGTATTTGTT (site AGATATACTAA) | 1.74 |
| AGATCATCATGGACCGGTTTTCCCGGTAATCCGTATTTGCA (site AGATCATCTTG) | 2.25 |
| AGATCATCATGGACCGGTTTTCCCGGTAATCCGTATTTGCA (site CGATCATCTAG) | 0 |
| AGATCTACATGGACCGGTTTTCCCGGTAATCCGTATTTGTG (site AAATCTACTCA) | 0.223 |
| AGATCTACATGGACCGGTTTTCCCGGTAATCCGTATTTGTG (site ACATCTACTCA) | 0.0151 |
| AGATCTACATGGACCGGTTTTCCCGGTAATCCGTATTTGTG (site AGATCTACTCA) | 0.215 |
| AGATCTACATGGACCGGTTTTCCCGGTAATCCGTATTTGTG (site ATATCTACTCA) | 0.00795 |
| AGATCTTCATGGACCGGTTTTCCCGGTAATCCGTATTTGCT (site AGATCTTCTAG) | 1.45 |
| AGATCTTCATGGACCGGTTTTCCCGGTAATCCGTATTTGCT (site CGATCATCTAG) | 0 |
| AGATGTACATGGACCGGTTTTCCCGGTAATCCGTATTTGAC (site AGATGTACTGT) | 1.96 |
| AGATTCCCATGGACCGGTTTTCCCGGTAATCCGTATTTGTG (site AGATTCCCTCA) | 0.348 |
| AGATTCCCATGGACCGGTTTTCCCGGTAATCCGTATTTGTG (site AGCTTCCCTCA) | 0.0129 |

— the supplement of paper PMC11208160
